According to patent US11414431B2, “Substituted pyrazolo[1,5-a]pyrimidines as TYK2 inhibitors” (Nimbus Lakshmi, Inc., priority 2018, dated 2022):

Columns and labels:
[1] = target: human TYK2 (JH2domain-pseudokinase) (Homo sapiens (Human), UniProt P29597); assay: TYK2 JH2 Domain Binding Assay (KINOMEscan); conditions: 11-point 3-fold dilution, top concentration 30,000 nM, duplicate; read-out: hTYK2_JH2_Binding (Kd; nM)
Procedure, shortened: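 KINOMEscan competition binding: HEK293-expressed NFkB-fused TYK2 JH2 (G556–D888), DNA-tagged, against immobilized ligand beads, 1 h shaking at room temperature, 0.9% DMSO. Bound kinase quantified by qPCR.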

[2] = system: IL-12 induced STAT4 phosphorlyation mediated by TYK2/JAK2; assay: IL-12 Induced pSTAT4 in Human PBMC; type: cell-based; conditions: 1.7 ng/mL IL-12 for 30 minutes
Procedure, shortened: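 Thawed human PBMC pre-incubated with compound 1 hr at 37° C (0.1% DMSO final), then stimulated 30 minutes with IL-12 at 1.7 ng/mL final. pSTAT4 and total STAT4 measured in cell lysates with MSD reagents.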

Sequence of human TYK2 (JH2domain-pseudokinase) (P29597 556-888): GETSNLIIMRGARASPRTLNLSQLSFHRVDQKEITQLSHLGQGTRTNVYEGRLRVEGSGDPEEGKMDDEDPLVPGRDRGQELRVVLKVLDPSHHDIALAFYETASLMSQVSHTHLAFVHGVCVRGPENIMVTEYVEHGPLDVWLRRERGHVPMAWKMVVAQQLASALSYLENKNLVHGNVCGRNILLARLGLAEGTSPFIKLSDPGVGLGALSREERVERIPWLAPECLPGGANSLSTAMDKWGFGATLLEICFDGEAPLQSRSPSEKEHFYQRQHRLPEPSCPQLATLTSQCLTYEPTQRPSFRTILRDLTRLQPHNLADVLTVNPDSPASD

Row | Compound | Kd [1] [nM] | IC50 [2] [µM] | IC50 ([2]; 0.5 h) [µM]
1 | CNc1ccc(-c2cc(NC)n3ncc(C(=O)N[C@@H]4C[C@@H]4F)c3n2)n2ccnc12 [Compound I-479] | < 0.2 | < 0.1 | 
2 | CC(C)n1cc(-c2nc3c(C(=O)NC4CC[C@H]4O)cnn3c3c2OCCN3)c2cccnc21 (some centres unmarked) [Compound I-753] | < 0.2 | < 0.1 | 
3 | CNc1ccc(-c2cc(NC)n3ncc(C(=O)N[C@@H]4CC[C@H]4OC)c3n2)n2ccnc12 [Compound I-490] | < 0.2 | < 0.1 | 
4 | CNc1cc(Nc2cccn([C@@H]3CCC[C@](C)(O)C3)c2=O)nc2c(C(=O)NC3CC3)cnn12 [Compound I-3, N-cyclopropyl-5-((1-((1R,3S)-3-hydroxy-3-methylcyclohexyl)-2-oxo-1,2-dihydropyridin-3-yl)amino)-7-(methylamino)pyrazolo[1,5-a]pyrimidine-3-carboxamide] | < 0.2 |  | < 0.1
5 | CNc1cc(-c2cnc3n(CC(=O)N4CCOCC4)cccc2-3)nc2c(C(=O)NC3CC[C@@H]3OC)cnn12 (some centres unmarked) [Compound I-962] | < 0.2 | 0.5 to 1 | 
6 | O=C(NC1CC[C@@H]1F)c1cnn2c3c(c(-c4cn(C5COC5)c5ncccc45)nc12)OCCN3 (some centres unmarked) [Compound I-774] | < 0.2 | < 0.1 | 
7 | CNc1cc(Nc2cccn(-c3ccccn3)c2=O)nc2c(C(N)=O)cnn12 [Compound I-119] | < 0.2 | 0.1 to 0.5 | 
8 | CNc1cc(-c2cnc3n(C4CCN(CCOC)CC4)cccc2-3)nc2c(C(=O)N[C@H]3CC[C@@H]3OC)cnn12 [Compound I-1020, N-((1S,2S)-2-methoxycyclobutyl)-5-(7-(1-(2-methoxyethyl)piperidin-4-yl)-7H-pyrrolo[2,3-b]pyridin-3-yl)-7-(methylamino)pyrazolo[1,5-a]pyrimidine-3-carboxamide] | < 0.2 |  | < 0.1
9 | CNc1cc(Nc2cccn([C@H]3CC[C@H](OC)CC3)c2=O)nc2c(C(=O)N[C@H]3C[C@@H]3OC)cnn12 [Compound I-32, 5-((1-((1r,4S)-4-Methoxycyclohexyl)-2-oxo-1,2-dihydropyridin-3-yl)amino)-N-((1S,2S)-2-methoxycyclopropyl)-7-(methylamino)pyrazolo[1,5-a]pyrimidine-3-carboxamide] | < 0.2 | < 0.1 | 
10 | CNc1cc(-c2cn([C@H]3C[C@@H](O)C3)c3ncccc23)nc2c(C(=O)NC3CC3)cnn12 [Compound I-495] | < 0.2 | < 0.1 | 
11 | CC(C)n1cccc(Nc2nc3c(C(=O)N[C@H]4CCC4(F)F)cnn3c3c2OCCN3)c1=O [Compound I-766] | < 0.2 | < 0.1 | 
12 | CNc1cc(-c2cn(C3CN(C)C3)c3ncccc23)nc2c(C(=O)NC3CC[C@@H]3OC)cnn12 (some centres unmarked) [Compound I-608] | < 0.2 | < 0.1 | 
13 | O=C(N[C@@H]1CCC1(F)F)c1cnn2c3c(c(-c4cn(C5COC5)c5ncccc45)nc12)OCCN3 [Compound I-772] | < 0.2 | < 0.1 | 
14 | CNc1cc(-c2cn([C@@H]3COC[C@H]3O)c3ncccc23)nc2c(C(=O)N[C@@H]3C[C@@H]3F)cnn12 [Compound I-502] | < 0.2 | 0.1 to 0.5 | 
15 | CNc1cc(Nc2cccn([C@H]3C[C@H](OC)C3)c2=O)nc2c(C(=O)NC3CC3)cnn12 [Compound I-4, N-Cyclopropyl-5-((1-((1r,3r)-3-methoxycyclobutyl)-2-oxo-1,2-dihydropyridin-3-yl)amino)-7-(methylamino)pyrazolo[1,5-a]pyrimidine-3-carboxamide] | < 0.2 |  | < 0.1
16 | CNc1cc(-c2cn([C@H]3CCCOC3)c3ncccc23)nc2c(C(=O)N[C@@H]3CC[C@@H]3O)cnn12 [Compound I-14, N-((1R,2S)-2-Hydroxycyclobutyl)-7-(methylamino)-5-(1-((S)-tetrahydro-2H-pyran-3-yl)-1H-pyrrolo[2,3-b]pyridin-3-yl)pyrazolo[1,5-a]pyrimidine-3-carboxamide] | < 0.2 |  | < 0.1
17 | CNc1cc(-c2cnc3n([C@@H]4COC[C@H]4O)cccc2-3)nc2c(C(=O)N[C@@H]3C[C@@H]3F)cnn12 [Compound I-821] | < 0.2 | 0.1 to 0.5 | 
18 | CNc1cc(Nc2cccn([C@H]3C[C@H](F)C3)c2=O)nc2c(C(=O)N[C@H]3C[C@@H]3OC)cnn12 [Compound I-138] | < 0.2 | < 0.1 | 
19 | CNc1cc(-c2cn(C3COC3)c3ncccc23)nc2c(C(=O)N[C@H]3CC[C@@H]3F)cnn12 [Compound I-508] | < 0.2 | < 0.1 | 
20 | CNc1cc(-c2cnc3n(C4CCOCC4)cccc2-3)nc2c(C(=O)N[C@H]3CC[C@@H]3OC)cnn12 [Compound I-1014] | < 0.2 | < 0.1 | 
21 | CNc1cc(-c2cnc3n([C@H]4CCOC[C@@H]4O)cccc2-3)nc2c(C(=O)N[C@@H]3C[C@@H]3F)cnn12 [Compound I-825] | < 0.2 | < 0.1 | 

Row | Compound | Kd [1] [nM] | IC50 [2] [µM] | IC50 ([2]; 0.5 h) [µM]
22 | CNc1cc(Nc2cccn([C@H]3[C@@H]4COC[C@@H]43)c2=O)nc2c(C(=O)N[C@H]3CCC3(F)F)cnn12 [Compound I-307] | < 0.2 | < 0.1 | 
23 | CNc1ccc(-c2cc(NC)n3ncc(C(=O)NC4CC[C@@H]4OC)c3n2)n2ccnc12 (some centres unmarked) [Compound I-488] | < 0.2 | < 0.1 | 
24 | CNc1cc(Nc2cccn([C@@H]3C[C@H]3F)c2=O)nc2c(C(=O)N[C@@H]3CC[C@H]3OC)cnn12 [Compound I-53, 5-((1-((1R,2R)-2-Fluorocyclopropyl)-2-oxo-1,2-dihydropyridin-3-γ1)amino)-N-((1R,2R)-2-methoxycyclobutyl)-7-(methylamino)pyrazolo[1,5-a]pyrimidine-3-carboxamide] | < 0.2 | < 0.1 | 
25 | CNc1cc(Nc2cccn(-c3ocnc3C)c2=O)nc2c(C(=O)N[C@H]3CC[C@@H]3F)cnn12 [Compound I-186] | < 0.2 | < 0.1 | 
26 | CNc1cc(-c2cnc3n([C@H]4COC[C@@H]4O)cccc2-3)nc2c(C(=O)N[C@@H]3C[C@@H]3F)cnn12 [Compound I-820] | < 0.2 | < 0.1 | 
27 | CNc1cc(-c2cnc3n([C@H]4CCOC[C@@H]4O)cccc2-3)nc2c(C(=O)NC3CC3)cnn12 [Compound I-819] | < 0.2 | < 0.1 | 
28 | CNc1ccc(-c2cc(NC)n3ncc(C(=O)N[C@H]4CC[C@@H]4OC)c3n2)n2ccnc12 [Compound I-489] | > 10 |  | 
29 | O=C(N[C@@H]1CC[C@H]1F)c1cnn2c3c(c(-c4cn([C@H]5C[C@H](O)C5)c5ncccc45)nc12)OCCN3 [Compound I-758] | < 0.2 |  | 
30 | CNc1cc(-c2cn([C@H]3C[C@@H](COC)C3)c3ncccc23)nc2c(C(=O)N[C@@H]3CC[C@H]3OC)cnn12 [Compound I-934] | < 0.2 |  | 
31 | CNc1cc(Nc2cccn([C@@H]3CCC[C@@H]3O)c2=O)nc2c(C(=O)N[C@H]3CC[C@H](OC)C3)cnn12 [Compound I-79, 5-((1-((1R,2S)-2-Hydroxycyclopentyl)-2-oxo-1,2-dihydropyridin-3-yl)amino)-N-((1S,3S)-3-methoxycyclopentyl)-7-(methylamino)pyrazolo[1,5-a]pyrimidine-3-carboxamide] | 0.2 to 1 |  | 
32 | CNc1cc(Nc2cccn(-c3coc(C)n3)c2=O)nc2c(C(=O)N[C@@H]3C[C@@H]3F)cnn12 [Compound I-126] | > 10 |  | 
33 | CNc1cc(Nc2cccn(C3CCOCC3)c2=O)nc2c(C(=O)N[C@H]3C[C@@H]3OC)cnn12 [Compound I-28, N-((1S,2S)-2-Methoxycyclopropyl)-7-(methylamino)-5-((2-oxo-1-(tetrahydro-2H-pyran-4-yl)-1,2-dihydropyridin-3-yl)amino)pyrazol[1,5-a]pyrimidine-3-carboxamide] | < 0.2 |  | 
34 | CNc1cc(Nc2cccn(-c3ocnc3C)c2=O)nc2c(C(=O)N[C@@H]3CC[C@H]3F)cnn12 [Compound I-187] | < 0.2 |  | 
35 | CNc1cc(Nc2cccn([C@H]3CC[C@@H]3O)c2=O)nc2c(C(=O)N[C@@H]3CCC[C@@H](OC)C3)cnn12 [Compound I-96, 5-((1-((1S,2S)-2-Hydroxycyclobutyl)-2-oxo-1,2-dihydropyridin-3-yl)amino)-N-((1R,3R)-3-methoxycyclohexyl)-7-(methylamino)pyrazolo[1,5-a]pyrimidine-3-carboxamide] | 1 to 10 |  | 
36 | CNc1cc(Nc2cccn([C@@H]3CC[C@@H]3O)c2=O)nc2c(C(=O)N[C@H]3CCC[C@H](OC)C3)cnn12 [Compound I-100, 5-((1-((1R,2S)-2-Hydroxycyclobutyl)-2-oxo-1,2-dihydropyridin-3-yl)amino)-N-((1S,3S)-3-methoxycyclohexyl)-7-(methylamino)pyrazolo[1,5-a]pyrimidine-3-carboxamide] | 0.2 to 1 |  | 
37 | CNc1cc(Nc2ccc(F)n(-c3ccccn3)c2=O)nc2c(C(=O)NC3CC3)cnn12 [Compound I-473] | > 10 |  | 
38 | CNc1cc(Nc2cccn(C3COC3)c2=O)nc2c(C(=O)N[C@H]3CC[C@H]3F)cnn12 [Compound I-161] | < 0.2 |  | 
39 | CNc1cc(Nc2cccn([C@H]3C[C@@H]3F)c2=O)nc2c(C(=O)N[C@@H]3CC[C@H](O)C3)cnn12 [Compound I-44, 5-((1-((1S,2S)-2-Fluorocyclopropyl)-2-oxo-1,2-dihydropyridin-3-yl)amino)-N-((1R,3S)-3-hydroxycyclopentyl)-7-(methylamino)pyrazolo[1,5-a]pyrimidine-3-carboxamide] | 0.2 to 1 |  | 
40 | CNc1ccc(-c2cc(NC)n3ncc(C(=O)NC4CCC4(F)F)c3n2)n2ccnc12 (centres unmarked) [Compound I-491] | < 0.2 |  | 
41 | CNc1cc(Nc2cccn([C@@H]3C[C@H]3F)c2=O)nc2c(C(=O)N[C@@H]3CC[C@H](O)C3)cnn12 [Compound I-42, 5-((1-((1R,2R)-2-Fluorocyclopropyl)-2-oxo-1,2-dihydropyridin-3-yl)amino)-N-((1R,3S)-3-hydroxycyclopentyl)-7-(methylamino)pyrazolo[1,5-a]pyrimidine-3-carboxamide] | 0.2 to 1 |  | 
